Series [1] in a line: Antiproliferative activity against chemosensitive human COLO205 cells incubated for 72 hrs by MTT assay. The format is functional, cell-based. To be noted: COLO 205, 72 h. Background: Tetrazolium assays rely on reduction of a dye to a coloured formazan, in cell work by metabolically active cells.
Series [2] concerns the target T1, ATP-dependent translocase ABCB1 (Homo sapiens, UniProt P08183). Kind of series: Inhibition of human ABCB1 expressed in mouse L5178Y cells assessed as fluorescence activity ratio at 2 uM incubated for 10 mins by flow cytometry based rhodamine-123 accumulation assay (reference value: 0.78). It counts as cell-based. Background: In flow cytometry, cells or beads pass a laser one at a time.

Series [3] is described as follows: Antiproliferative activity against multidrug resistant human COLO320 cells incubated for 72 hrs by MTT assay. The format is functional. Conditions: COLO 320, 72 h; call rule not given here.
Series [4] relates to L5178Y. Kind of series: Selectivity index, ratio of antiproliferative IC50 for wild type parental mouse L5178Y cells to antiproliferative IC50 for human ABCB1 expressing mouse L5178Y cells. The format is functional.
Series [5] concerns the target T1, ATP-dependent translocase ABCB1. As to the kind of experiment: Inhibition of ABCB1 in multidrug resistant human COLO320 cells assessed as fluorescence activity ratio at 2 uM incubated for 10 mins by flow cytometry based rhodamine-123 accumulation assay (reference value: 0.62).
For a further series, the system named is COLO 205. Kind of series: Cytotoxicity against chemosensitive human COLO205 cells incubated for 24 hrs by MTT assay. The format is functional, cell-based. To be noted: COLO 205, 24 h.
Series [6] in a line: Cytotoxicity against multidrug resistant human COLO320 cells incubated for 24 hrs by MTT assay. It counts as functional, cell-based. To be noted: COLO 320, 24 h.
For series [7], the system named is L5178Y. As to the kind of experiment: Antiproliferative activity against human ABCB1 expressing mouse L5178Y cells incubated for 72 hrs by MTT assay. It counts as functional, cell-based.
Series [8] concerns the target T1, ATP-dependent translocase ABCB1. As to the kind of experiment: Inhibition of human ABCB1 expressed in mouse L5178Y cells assessed as fluorescence activity ratio at 20 uM incubated for 10 mins by flow cytometry based rhodamine-123 accumulation assay (reference value: 0.78). It counts as cell-based.
Series [9] has as its system L5178Y. Kind of series: Cytotoxicity against chemosensitive wild type parental mouse L5178Y cells incubated for 24 hrs by MTT assay. It counts as functional, cell-based.
For series [10], the target named is T1, ATP-dependent translocase ABCB1. Kind of series: Inhibition of ABCB1 in multidrug resistant human COLO320 cells assessed as fluorescence activity ratio at 20 uM incubated for 10 mins by flow cytometry based rhodamine-123 accumulation assay (reference value: 0.62).
In series [11] the test system is L5178Y. As to the kind of experiment: Cytotoxicity against human ABCB1 expressing mouse L5178Y cells incubated for 24 hrs by MTT assay. It counts as functional, cell-based.
Series [12] has as its system L5178Y. As to the kind of experiment: Antiproliferative activity against chemosensitive wild type parental mouse L5178Y cells incubated for 72 hrs by MTT assay. It counts as functional, cell-based.
Series [13] deals with T1, ATP-dependent translocase ABCB1. Kind of series: Inhibition of human ABCB1 expressed in mouse L5178Y cells assessed as fluorescence activity ratio at 0.2 uM incubated for 10 mins by flow cytometry based rhodamine-123 accumulation assay (reference value: 0.78). The format is cell-based.
The target is the same in series [14]. As to the kind of experiment: Inhibition of human ABCB1 expressed in mouse L5178Y cells assessed as potentiation of 2 mg/ml doxorubicin-induced cytotoxicty by measuring combination index at 5:1 compound to doxorubicin ratio incubated for 48 hrs by MTT assay. The format is cell-based.
Series [15] is described as follows: Selectivity index, ratio of cytotoxic IC50 for chemosensitive human COLO205 cells to cytotoxic IC50 for multidrug resistant human COLO320 cells. The format is functional, COLO 205.
In series [16] the target is T1, ATP-dependent translocase ABCB1. Kind of series: Inhibition of ABCB1 in multidrug resistant human COLO320 cells assessed as fluorescence activity ratio at 0.2 uM incubated for 10 mins by flow cytometry based rhodamine-123 accumulation assay (reference value: 0.62).
The nature of series [17]: Selectivity index, ratio of antiproliferative IC50 for chemosensitive human COLO205 cells to antiproliferative IC50 for multidrug resistant human COLO320 cells. The format is functional, COLO 205.
Series [18] relates to L5178Y. Kind of series: Selectivity index, ratio of cytotoxic IC50 for wild type parental mouse L5178Y cells to cytotoxic IC50 for human ABCB1 expressing mouse L5178Y cells. The format is functional.
Series [19] has as its target T1, ATP-dependent translocase ABCB1. As to the kind of experiment: Activation of human ABCB1 expressed in Sf9 cell membrane vesicles assessed as inorganic phosphate release at 0.8 uM to 100 uM using MgATP by colorimetric ATPase assay.
The target is the same in series [20]. As to the kind of experiment: Inhibition of human ABCB1 expressed in mouse L5178Y cells assessed as potentiation of 2 mg/ml doxorubicin-induced cytotoxicty at 6:1 compound to doxorubicin ratio incubated for 48 hrs by MTT assay. The format is cell-based.

pIC50: −log10 of the molar value. Some results are limits rather than exact numbers.

A word on the pIC50: it is −log10 of the IC50, conventionally taken in molar units.

T1 sequence (P08183 whole entry): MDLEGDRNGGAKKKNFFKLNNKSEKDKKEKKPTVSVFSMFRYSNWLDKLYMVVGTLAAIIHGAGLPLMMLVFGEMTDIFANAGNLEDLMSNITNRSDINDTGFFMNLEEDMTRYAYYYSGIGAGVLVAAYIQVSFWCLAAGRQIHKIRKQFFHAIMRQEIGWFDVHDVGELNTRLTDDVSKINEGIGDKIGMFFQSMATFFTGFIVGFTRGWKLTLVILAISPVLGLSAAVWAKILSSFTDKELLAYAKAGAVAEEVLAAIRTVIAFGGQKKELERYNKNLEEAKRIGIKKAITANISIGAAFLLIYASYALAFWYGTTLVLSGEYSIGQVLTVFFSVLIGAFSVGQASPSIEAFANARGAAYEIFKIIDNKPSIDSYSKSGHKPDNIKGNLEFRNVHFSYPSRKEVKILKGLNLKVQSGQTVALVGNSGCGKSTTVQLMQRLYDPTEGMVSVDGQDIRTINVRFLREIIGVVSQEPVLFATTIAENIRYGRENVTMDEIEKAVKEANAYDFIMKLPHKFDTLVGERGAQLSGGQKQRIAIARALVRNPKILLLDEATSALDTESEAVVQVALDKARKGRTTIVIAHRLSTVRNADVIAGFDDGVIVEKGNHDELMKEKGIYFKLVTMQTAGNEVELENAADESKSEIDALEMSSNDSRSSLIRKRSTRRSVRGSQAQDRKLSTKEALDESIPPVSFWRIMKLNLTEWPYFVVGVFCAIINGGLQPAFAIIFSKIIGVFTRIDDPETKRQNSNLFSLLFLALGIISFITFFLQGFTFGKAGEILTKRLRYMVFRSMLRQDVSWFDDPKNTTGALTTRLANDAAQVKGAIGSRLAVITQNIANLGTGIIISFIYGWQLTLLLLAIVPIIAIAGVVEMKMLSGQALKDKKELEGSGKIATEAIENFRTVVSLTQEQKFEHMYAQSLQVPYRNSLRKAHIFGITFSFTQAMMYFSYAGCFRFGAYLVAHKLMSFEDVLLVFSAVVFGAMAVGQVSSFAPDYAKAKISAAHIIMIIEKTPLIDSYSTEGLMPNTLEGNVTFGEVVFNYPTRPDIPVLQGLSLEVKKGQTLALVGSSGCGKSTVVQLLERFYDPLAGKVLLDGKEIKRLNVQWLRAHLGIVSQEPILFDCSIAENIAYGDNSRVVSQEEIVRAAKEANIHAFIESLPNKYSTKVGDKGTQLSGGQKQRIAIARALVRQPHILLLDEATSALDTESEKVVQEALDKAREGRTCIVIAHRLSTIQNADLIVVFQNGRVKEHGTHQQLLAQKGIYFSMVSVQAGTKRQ

Turning to `C/C1=C\[C@@H]2[C@H](CC[C@]3(CO3)[C@H](OC(=O)c3ccc(-c4ccccc4)cc3)[C@H]3[C@@H](OC(=O)c4ccc(-c5ccccc5)cc4)[C@@H](C)C[C@]3(O)C1=O)C2(C)C`, the pIC50 (in series [1]; in series [3]; in the series on COLO 205; in series [6]; in the series on L5178Y [7]; with L5178Y [9]) was below 4.00 in each case. The pIC50 in the series on L5178Y [11] was below 4.00; in the series with L5178Y [12] it was 4.13. Further, the Ratio worked out at 22.82 in [2], 2.7 in series [5], 30.97 in series [8] and 2.64 in series [10]. In addition, the “Ratio IC50” value with L5178Y [4] was below 0.74.
Take `C/C1=C\[C@@H]2[C@H](CC[C@]3(CO3)[C@H](OC(=O)c3cccc(C)c3)[C@H]3[C@@H](OC(=O)c4cccc(C)c4)[C@@H](C)C[C@]3(O)C1=O)C2(C)C`: the negative-log IC50 (pIC50) in series [1] is 4.81; in [3], 4.80; with COLO 205 it was below 4.30; in series [6], 4.62; in the series on L5178Y [7], 4.54; in the series on L5178Y [9], 4.58. The pIC50 was below 4.30 in the series on L5178Y [11] and 4.38 with L5178Y [12]. The Ratio was 86.39 in series [2]; 5.59 in [5]; 3.55 in series [13]; 83.29 in series [8]; 6.86 in [10]; 3 in series [16]. Moreover, the “Ratio IC50” value in the series on L5178Y [4] was 1.44; in series [15], above 2.09; in series [17], 0.98; in the series on L5178Y [18], below 0.53. Moreover, in series [14], the CI amounted to 0.066.
For `COc1cccc(C(=O)O[C@@H]2[C@@H]3[C@@H](OC(=O)c4cccc(OC)c4)[C@]4(CC[C@H]5[C@@H](/C=C(\C)C(=O)[C@@]3(O)C[C@@H]2C)C5(C)C)CO4)c1`, the pIC50 was below 4.00 in series [1]; below 4.00 in [3]; below 4.00 with COLO 205; below 4.00 in series [6]; 4.28 in the series on L5178Y [7]; 4.37 in the series with L5178Y [9]. Moreover, the pIC50 was below 4.00 in the series on L5178Y [11] and 4.61 with L5178Y [12]. Further, the Ratio in series [2] worked out at 60.62; in series [5], 9.1; in series [13] it was 10.45; in series [8], 63.13; in series [10] it was 15.4; in series [16] it was 3.13. For the same compound, the “Ratio IC50” value was 0.46 in the series with L5178Y [4] and below 0.42 in the series on L5178Y [18]. Besides, in series [14], the CI is listed as 0.097. The result in series [19] was Active.
With `C/C1=C\[C@@H]2[C@H](CC[C@]3(CO3)[C@H](OC(=O)c3ccc(N(C)C)cc3)[C@H]3[C@@H](OC(=O)c4ccc(N(C)C)cc4)[C@@H](C)C[C@]3(O)C1=O)C2(C)C`, the negative logarithm of the IC50 (pIC50) in [1] was 4.76; in series [3] it was 4.67; with COLO 205, 4.65; in series [6] it was 4.44; with L5178Y [7] it was 4.34; in the series on L5178Y [9] it was 4.47. Besides, the pIC50 in the series with L5178Y [11] is 4.32; with L5178Y [12] it was 4.54. For the same compound, the Ratio in series [2] was determined as 8.03; in [5], 3.07; in [13], 1.38; in [8], 56.81; in series [10], 12.31; in series [16], 1.02. For the same compound, the “Ratio IC50” value in the series with L5178Y [4] is 0.63; in series [15], 0.62; in series [17], 0.8; in the series on L5178Y [18], 0.7. Moreover, in series [14], the CI came out at 0.172.
With `C/C1=C\[C@@H]2[C@H](CC[C@]3(CO3)[C@H](OC(=O)c3ccco3)[C@H]3[C@@H](OC(=O)c4ccco4)[C@@H](C)C[C@]3(O)C1=O)C2(C)C`, the pIC50 in series [1] was 4.56; in series [3], 4.55; in the series with COLO 205, below 4.30; in series [6] it was below 4.30; in the series on L5178Y [7], below 4.30; with L5178Y [9] it was below 4.30. The pIC50 in the series on L5178Y [11] was below 4.30; in the series on L5178Y [12], 4.61. Further, the Ratio is recorded as 6.09 in series [2], 1.67 in [5], 42.56 in series [8] and 5.5 in series [10]. Besides, the entries for the “Ratio IC50” value (in the series with L5178Y [4]; in [17]) were below 0.5 and 0.98, respectively. Also, the CI in series [14] worked out at 0.053.
Regarding `CO[C@H]1[C@@H]2[C@H](CC[C@]3(COC(C)=O)O[C@@H]3[C@H]3[C@@H](OC(C)=O)[C@@H](C)C[C@]3(O)C(=O)[C@@H]1C)C2(C)C`, the pIC50 was below 4.00 in [1]; 4.18 in series [3]; below 4.00 with COLO 205; below 4.00 in [6]; below 4.00 in the series with L5178Y [7]; below 4.00 in the series on L5178Y [9]. For the same compound, the pIC50 in the series on L5178Y [11] and in the series on L5178Y [12] was below 4.00 each time. In series [20], the CI is 0.214. The Ratio in series [2] is 1.16; in series [5], 1.1; in [8], 2.07; in [10], 2.25. Also, the “Ratio IC50” value in series [17] is reported as above 1.98.
Consider `CO[C@H]1[C@@H]2[C@H](CC[C@]3(COC(=O)c4ccc(C(F)(F)F)cc4)O[C@@H]3[C@H]3[C@@H](OC(=O)c4ccc(C(F)(F)F)cc4)[C@@H](C)C[C@]3(O)C(=O)[C@@H]1C)C2(C)C`, for which the pIC50 is 5.09 in series [1]; 5.03 in series [3]; 4.42 in the series on L5178Y [7]; 4.32 in the series on L5178Y [9]; 4.29 with L5178Y [11]; 4.48 in the series with L5178Y [12]. For the same compound, the Ratio is 39.3 in series [2]; 8.25 in series [5]; 9.87 in series [13]; 41.81 in series [8]; 11.56 in series [10]; 2.83 in series [16]. In addition, the results for the “Ratio IC50” value (with L5178Y [4]; in series [17]; in the series on L5178Y [18]) were 0.78, 0.88 and 0.94, respectively. In series [14], the CI is reported as 0.054.
Take `CC(=O)O[C@@H]1[C@@H]2[C@@H](OC(C)=O)[C@](C)(OC(C)=O)CC[C@H]3[C@@H](/C=C(\C)[C@H](OC(C)=O)[C@@]2(OC(C)=O)C[C@@H]1C)C3(C)C`: the pIC50 was below 4.00 in series [1]; below 4.00 in series [3]; 4.31 with COLO 205; 4.29 in series [6]; below 4.00 in the series on L5178Y [7]; below 4.00 in the series on L5178Y [9]. Also, the pIC50 in the series on L5178Y [11] and in the series with L5178Y [12] was below 4.00 throughout. Further, the Ratio in series [2] is 11.37; in series [5], 2.76; in series [8] it was 51.34; in series [10], 5.98. The CI in series [14] is recorded as 0.205. The “Ratio IC50” value in [15] worked out at 0.96.
As to `C/C1=C\[C@@H]2[C@H](CC[C@@](C)(O)[C@H](O)[C@H]3[C@@H](OC(=O)c4ccccc4)[C@@H](C)C[C@]3(O)[C@H]1OC(=O)c1ccccc1)C2(C)C`, the pIC50 in series [1] is below 4.00; in series [3], 4.52; in the series with COLO 205 it was 4.35; in [6], 4.29; in the series on L5178Y [7], below 4.00; with L5178Y [9], 4.28. The pIC50 in the series with L5178Y [11] is 4.29; with L5178Y [12] it was 4.41. The Ratio worked out at 43.35 in series [2]; 2.94 in [5]; 2.33 in [13]; 71.12 in series [8]; 5.78 in series [10]; 1.48 in series [16]. Besides, the “Ratio IC50” value is recorded as below 0.39 in the series on L5178Y [4], 0.88 in [15], above 3.28 in series [17] and 1.03 in the series with L5178Y [18].

These data come from ChEMBL document CHEMBL3608294, “Epoxylathyrol Derivatives: Modulation of ABCB1-Mediated Multidrug Resistance in Human Colon Adenocarcinoma and Mouse T-Lymphoma Cells” (J Nat Prod, 2015).
